Test results reported in patent US4026888A, “Certain derivatives of particular 3-thiolated cephalosporins” (priority 1976, dated 1977).
In brackets after ≈: the same amount, converted by molar mass. Read-outs that look alike come from different tables or passages of the source.

Experiments:
S. aureus BX1633 A9606 = test: Antibiotic activity in nutrient broth (MIC); assay type: cell-based; conditions: derivatives adjusted for BL-S640 content
Source text: (§1) Antibiotic Activity In Nutrient Broth
(§2) ** Dilution of overnight broth culture.
(§3) Antibiotic Spectrum Nutrient Broth
(§4) Antibiotic Spectrum in Nutrient Broth

S. aureus Smith A9537 = test: Antibiotic activity in nutrient broth (MIC); assay type: cell-based; conditions: + 50% serum, derivatives adjusted for BL-S640 content
Source text: as §1, §2, §3, §4

K. pneumoniae A9977 [1] = test: Antibiotic activity in nutrient broth (MIC); assay type: cell-based; conditions: Klebsiella pneumoniae, inoculum 10^-4, derivatives adjusted for BL-S640 content, read-out: MIC
Source text: as §1, §2, §3, §4

E. coli A9675 = test: Antibiotic activity in nutrient broth (MIC); assay type: cell-based; conditions: derivatives adjusted for BL-S640 content
Source text: as §1, §2, §3, §4

Pr. mirabilis A9900 = test: Antibiotic activity in nutrient broth (MIC); assay type: cell-based; conditions: Proteus mirabilis, inoculum 10^-4, derivatives adjusted for BL-S640 content
Source text: as §1, §2, §3, §4

Ent. cloacae A9659 = test: Antibiotic activity in nutrient broth (MIC); assay type: cell-based; conditions: derivatives adjusted for BL-S640 content
Source text: as §1, §2, §3, §4

Ent. cloacae A9657 = test: Antibiotic activity in nutrient broth (MIC); assay type: cell-based; conditions: derivatives adjusted for BL-S640 content
Source text: as §1, §2, §3, §4

Ps. aeruginosa A9843A = test: Antibiotic activity in nutrient broth (MIC); assay type: cell-based; conditions: Pseudomonas aeruginosa
Source text: as §1, §2, §3, §4

Str. pyogenes A9604 = test: Antibiotic activity in nutrient broth (MIC); assay type: cell-based; conditions: 45% AAB + 5% serum + 50% broth, derivatives adjusted for BL-S640 content
Source text: as §1
* 45% AAB+ 5% serum+ 50% broth listed above.
as §2, §3
* 45% AAB + 5% serum + 50% broth
as §4
*45% AAB + 5% serum + 50% broth listed above.

P. mirabilis A9900 [2] = test: IM PD50 in mice; assay type: in vivo; conditions: Proteus mirabilis
Source text: Comparative IM PD50 Values of
(§5) BL-S640 Derivatives in Mice

P. mirabilis A9900 [3] = test: Oral PD50 in mice; assay type: in vivo; conditions: oral, mice treated at 1 and 3.5 hours post-challenge
[4] = Mouse blood levels after intramuscular administration; assay type: in vivo; conditions: IM 10 mg./kg.
Procedure: Mouse Blood Levels After Intramuscular Administration
of 10 mg./kg. Body Weight
The compounds were dissolved in 0.01% phosphate buffer.
Mouse Blood Levels After IM
Administration of 10 mg./kg. Body Weight
The compounds were prepared in 0.01% phosphate
(§6) The compounds were prepared in 0.01% phosphate buffer.

S. pyogenes A9604 = test: Oral PD50 in mice; assay type: in vivo; conditions: Streptococcus pyogenes, mice treated at 1 and 3.5 hours post-challenge
Procedure: (§7) Comparative Oral PD50 Values of
as §5
(§8) *Mice were treated at 1 and 3.5 hours post-challenge.

K. pneumoniae A9977 [5] = test: Oral PD50 in mice; assay type: in vivo; conditions: Klebsiella pneumoniae, A9977; oral; mice treated at 1 and 3.5 hours post-challenge; read-out: PD50
Procedure: as §7, §5, §8

P. mirabilis A9707 = test: Oral PD50 in mice; assay type: in vivo; conditions: Proteus mirabilis, mice treated at 1 and 3.5 hours post-challenge
Procedure: as §7, §5, §8

E. coli A15119 = test: Oral PD50 in mice; assay type: in vivo; conditions: Escherichia coli, A15119, po, 3.5 h, read-out: PD50
Procedure: as §7, §5, §8

[6] = Mouse blood levels after oral administration; assay type: in vivo
Procedure: Mouse Blood Levels After Oral
Administration Of 100 mg./kg. Body Weight
The compounds were prepared in
Tween - carboxymethylcellulose
and 8 mice were used for each
Mouse Blood Levels After PO
Administration of 100 mg./kg. Body Weight
The compounds were prepared in Tween-CMC. BL-S640
The compounds were prepared in Tween-CMC. Values are the average of two

[7] = Urinary recovery after IM administration to rats; assay type: in vivo; conditions: rat, urine, 50 mg/kg, IM 50 mg./kg., read-out: Urinary Recovery, Percentage of Administered Dose Recovered
Procedure: Urinary Recovery After IM
Administration of 50 and 10 mg./kg. to Rats
The compounds were prepared in 0.01% phosphate buffer. BL-S640 was used as
Urinary Recovery after IM
Administration of 50 mg./kg. to Rats
as §6

[8] = mouse, blood, im, 10 mg/kg, Example 3, average of 3 experiments, read-out: Blood Levels
[9] = mouse, blood, im, 10 mg/kg, Table III, 0.01% phosphate buffer, read-out: Mouse Blood Levels

N[C@@H](C(=O)N[C@@H]1C(=O)N2C(C(=O)O)=C(CSc3cnn[nH]3)CS[C@H]12)c1ccc(O)cc1 [BL-S640, 7-[D-α-amino-α-(p-hydroxyphenyl)acetamido]-3-(1,2,3-triazol-5-ylthiomethyl)-3-cephem-4-carboxylic acid, reference compound]
MIC (S. aureus BX1633 A9606; Staphylococcus aureus, BX1633A9606, inoculum 10^-2, read-out: MIC): 4 µg/mL (≈ 8.65 µM) | MIC (S. aureus BX1633 A9606; inoculum 10^-2): 2 µg/mL (≈ 4.32 µM) | MIC (S. aureus Smith A9537; Staphylococcus aureus, SMITHA9537, inoculum 10^-4, read-out: MIC): 4 µg/mL | MIC (S. aureus Smith A9537; inoculum 10^-4): 2 µg/mL | MIC (K. pneumoniae A9977 [1]): 0.5 µg/mL (≈ 1.08 µM) | MIC (E. coli A9675; Escherichia coli, A9675, inoculum 10^-4, read-out: MIC): 4 µg/mL (≈ 8.65 µM) | MIC (E. coli A9675; inoculum 10^-4): 2 µg/mL (≈ 4.32 µM) | MIC (Pr. mirabilis A9900): 0.5 µg/mL (≈ 1.08 µM) | MIC (Ent. cloacae A9659; Enterobacter cloacae, A9659, inoculum 10^-4, read-out: MIC): 63 µg/mL (≈ 136 µM) | MIC (Ent. cloacae A9659; inoculum 10^-4): 32 µg/mL (≈ 69.2 µM) | MIC (Ent. cloacae A9657; Enterobacter cloacae, A9657, inoculum 10^-4, read-out: MIC): 1 µg/mL (≈ 2.16 µM) | MIC (Ent. cloacae A9657; inoculum 10^-4): 0.5 µg/mL (≈ 1.08 µM) | MIC (Ps. aeruginosa A9843A): > 125 µg/mL | MIC (Str. pyogenes A9604; Streptococcus pyogenes, A9604, inoculum 10^-3, read-out: MIC): 0.06 µg/mL | MIC (Str. pyogenes A9604; inoculum 10^-3): 0.03 µg/mL | ED50 (P. mirabilis A9900 [2]): 1.6 mg/kg | ED50 (P. mirabilis A9900 [3]; Proteus mirabilis, A9900, po, 3.5 h, read-out: PD50): 7.2 mg/kg | PD50 (P. mirabilis A9900 [3]): 9.6 mg./kg./treatment | Blood Levels ([4]; Example 2, 1 hr, 0.01% phosphate buffer, 16 or 32 mice): 9.5 µg/mL | concentration at 0.25 h [4, 8]: 12700 ng/mL | concentration at 0.5 h ([4]; mouse, blood, im, 10 mg/kg, Example 3, 0.5 hr, average of 3 experiments, read-out: Blood Levels): 11500 ng/mL | concentration at 1 h ([4]; mouse, blood, im, 10 mg/kg, Example 3, 1 hr, average of 3 experiments, read-out: Blood Levels): 8000 ng/mL | concentration at 1.5 h [4, 8]: 5700 ng/mL | concentration at 0.25 h [4, 9]: 16300 ng/mL | concentration at 1.5 h [4, 9]: 6300 ng/mL | ED50 (S. pyogenes A9604): 0.4 mg/kg | ED50 (K. pneumoniae A9977 [5]): 1.6 mg/kg | ED50 (P. mirabilis A9707): 2.4 mg/kg | ED50 (E. coli A15119; oral, mice treated at 1 and 3.5 hours post-challenge): 4.1 mg/kg | ED50 (E. coli A15119): 1.4 mg/kg | Blood Levels ([6]; Example 3, PO 100 mg./kg., 1 hr, Tween-CMC, average of two experiments): 42.4 µg/mL | Blood Level ([6]; Table II, oral 100 mg./kg., 0.5 hr, Tween-carboxymethylcellulose, 8 mice, 100 mg/kg, 30 min): 57.4 µg/mL | Blood Level ([6]; Table II, oral 100 mg./kg., 1 hr, Tween-carboxymethylcellulose, 8 mice, 100 mg/kg, 60 min): 47 µg/mL | Blood Level ([6]; Table II, oral 100 mg./kg., 2 hr, Tween-carboxymethylcellulose, 8 mice, 100 mg/kg, 120 min): 29.5 µg/mL | Blood Level ([6]; Table II, oral 100 mg./kg., 3.5 hr, Tween-carboxymethylcellulose, 8 mice, 100 mg/kg, 210 min): 10.9 µg/mL | concentration at 0.5 h ([6]; mouse, blood, po, 100 mg/kg, Example 3, PO 100 mg./kg., 0.5 hr, Tween-CMC, average of two experiments, read-out: Blood Levels): 48700 ng/mL | concentration at 2 h ([6]; mouse, blood, po, 100 mg/kg, Example 3, PO 100 mg./kg., 2 hr, Tween-CMC, average of two experiments, read-out: Blood Levels): 24000 ng/mL | concentration at 3.5 h ([6]; mouse, blood, po, 100 mg/kg, Example 3, PO 100 mg./kg., 3.5 hr, Tween-CMC, average of two experiments, read-out: Blood Levels): 10100 ng/mL | concentration at 0.5 h ([6]; mouse, blood, po, 100 mg/kg, Table II, oral 100 mg./kg., 0.5 hr, Tween-carboxymethylcellulose, 8 mice, read-out: Blood Level): 50500 ng/mL | concentration at 1 h ([6]; mouse, blood, po, 100 mg/kg, Table II, oral 100 mg./kg., 1 hr, Tween-carboxymethylcellulose, 8 mice, read-out: Blood Level): 39000 ng/mL | concentration at 2 h ([6]; mouse, blood, po, 100 mg/kg, Table II, oral 100 mg./kg., 2 hr, Tween-carboxymethylcellulose, 8 mice, read-out: Blood Level): 24500 ng/mL | concentration at 3.5 h ([6]; mouse, blood, po, 100 mg/kg, Table II, oral 100 mg./kg., 3.5 hr, Tween-carboxymethylcellulose, 8 mice, read-out: Blood Level): 9600 ng/mL | dose excreted at 6 h ([7]; 0-6 hr): 44.2% | dose excreted at 24 h ([7]; 0-24 hr): 47.5% | dose excreted at 24 h ([7]; 6-24 hr): 3.3%
